Measured values as given in ChEMBL document CHEMBL1159343, “Isolation and structure of palstatin from the Amazon tree Hymeneae palustris(1)” (2003).
Values after ≈ are worked out from the molar mass of the structure shown. Active and inactive are the calls of the source. No cut-off for these calls is given here.

What was measured:
Neisseria gonorrhoeae = assay: Antimicrobial activity against Neisseria gonorrhoeae; format: functional
Micrococcus luteus = assay: Antimicrobial activity against Micrococcus luteus; format: functional, organism-based
Streptococcus pneumoniae = assay: Antimicrobial activity against Streptococcus pneumoniae; format: functional, organism-based
SF-268 = assay: Cytotoxicity against human SF268 cells after 48 hrs by SRB assay; format: functional; conditions: SF-268, 48 h
P388 = assay: Cytotoxicity against mouse P388 cells after 48 hrs by SRB assay; format: functional; conditions: P388, 48 h
Cryptococcus neoformans = assay: Antimicrobial activity against Cryptococcus neoformans; format: functional, organism-based
DU-145 = assay: Cytotoxicity against human DU145 cells after 48 hrs by SRB assay; format: functional; conditions: DU-145, 48 h
KM-20L2 = assay: Cytotoxicity against human KM20L2 cells after 48 hrs by SRB assay; format: functional; conditions: KM-20L2, 48 h
[1] = test system: Stenotrophomonas maltophilia; assay: Antimicrobial activity against Stenotrophomonas maltophilia; format: functional, organism-based
Enterobacter cloacae = assay: Antimicrobial activity against Enterobacter cloacae; format: functional, organism-based
Candida albicans = assay: Antimicrobial activity against Candida albicans; format: functional, organism-based
MCF7 = assay: Cytotoxicity against human MCF7 cells after 48 hrs by SRB assay; format: functional; conditions: MCF7, 48 h
Escherichia coli = assay: Antimicrobial activity against Escherichia coli; format: functional
NCI-H460 = assay: Cytotoxicity against human NCI-H460 cells after 48 hrs by SRB assay; format: functional; conditions: NCI-H460, 48 h
BXPC-3 = assay: Cytotoxicity against human BxPC3 cells after 48 hrs by SRB assay; format: functional; conditions: BXPC-3, 48 h
Staphylococcus aureus = assay: Antimicrobial activity against Staphylococcus aureus; format: functional, organism-based

Row | SMILES | MIC (Neisseria gonorrhoeae) | Activity (Micrococcus luteus) | Activity (Streptococcus pneumoniae) | GI50 (SF-268) | GI50 (P388) | Activity (Cryptococcus neoformans) | GI50 (DU-145) | GI50 (KM-20L2) | Activity [1] | Activity (Enterobacter cloacae) | Activity (Candida albicans) | GI50 (MCF7) | MIC (Escherichia coli) | GI50 (NCI-H460) | GI50 (BXPC-3) | Activity (Staphylococcus aureus)
1 | COc1cc([C@H]2Oc3cc(-c4cc(=O)c5c(O)cc(O)cc5o4)cc(OC)c3O[C@@H]2CO)ccc1O | 0.625 mg/L (≈ 1.26 µM) | inactive | inactive | 2.2 mg/L (≈ 4.45 µM) | 2.7 mg/L (≈ 5.46 µM) | inactive | 1.8 mg/L (≈ 3.64 µM) | 1.9 mg/L (≈ 3.84 µM) | inactive | inactive | inactive | 2.4 mg/L (≈ 4.85 µM) | 32 mg/L (≈ 64.7 µM) | 2 mg/L (≈ 4.04 µM) | 1.8 mg/L (≈ 3.64 µM) | inactive
2 | COc1cc(-c2cc(=O)c3c(O)cc(O)cc3o2)ccc1O [CHRYSOERIOL] | – | inactive | inactive | 1.7 mg/L (≈ 5.66 µM) | 4 mg/L (≈ 13.3 µM) | inactive | 1.1 mg/L (≈ 3.66 µM) | 2.5 mg/L (≈ 8.33 µM) | inactive | inactive | inactive | 3.1 mg/L (≈ 10.3 µM) | – | 2.1 mg/L (≈ 6.99 µM) | 2.6 mg/L (≈ 8.66 µM) | inactive
3 | COc1cc([C@H]2Oc3cc(-c4cc(=O)c5c(O)cc(O)cc5o4)ccc3O[C@@H]2CO)ccc1O [HYDNOCARPIN] | 0.5 mg/L (≈ 1.08 µM) | inactive | inactive | 2.6 mg/L (≈ 5.6 µM) | 9.5 mg/L (≈ 20.5 µM) | inactive | 1.9 mg/L (≈ 4.09 µM) | 2 mg/L (≈ 4.31 µM) | inactive | inactive | inactive | 2.7 mg/L (≈ 5.81 µM) | – | 2.3 mg/L (≈ 4.95 µM) | 1.5 mg/L (≈ 3.23 µM) | inactive
4 | O=c1cc(-c2ccc(O)c(O)c2)oc2cc(O)cc(O)c12 [LUTEOLIN] | 16 mg/L (≈ 55.9 µM) | inactive | inactive | 9 mg/L (≈ 31.4 µM) | > 10 mg/L | inactive | 4.4 mg/L (≈ 15.4 µM) | > 10 mg/L | inactive | inactive | inactive | 9.4 mg/L (≈ 32.8 µM) | 64 mg/L (≈ 224 µM) | 3.8 mg/L (≈ 13.3 µM) | > 10 mg/L | inactive
5 | COc1cc([C@H]2Oc3cc(-c4cc(=O)c5c(O)cc(O)cc5o4)cc(OC)c3O[C@@H]2CO)cc(OC)c1O [PALSTATIN] | 1 mg/L (≈ 1.91 µM) | inactive | inactive | > 10 mg/L | 8.5 mg/L (≈ 16.2 µM) | inactive | > 10 mg/L | > 10 mg/L | inactive | inactive | inactive | 3.6 mg/L (≈ 6.86 µM) | – | 5.9 mg/L (≈ 11.2 µM) | 3.2 mg/L (≈ 6.1 µM) | inactive
6 | COc1cc(-c2cc(=O)c3c(O)cc(O)cc3o2)cc(OC)c1O [TRICIN] | – | inactive | inactive | 3 mg/L (≈ 9.08 µM) | > 10 mg/L | inactive | 4.6 mg/L (≈ 13.9 µM) | > 10 mg/L | inactive | inactive | inactive | 7.7 mg/L (≈ 23.3 µM) | – | 6.5 mg/L (≈ 19.7 µM) | 7.5 mg/L (≈ 22.7 µM) | inactive
